Data: patent publication US6974806B2, “Lipid-rich plaque inhibitors” (Takeda Pharmaceutical Company Limited, priority 2000, dated 2005)

Test system: male apo-lipoprotein E deficient mouse
Assay: Experiment 1: plaque regression, % lesion area of aorta (oil red O) in apoE deficient mouse
Type: in vivo
Details: arteriosclerotic diet 8 weeks, then 27 mg/kg/day mixed with normal diet, 9th to 12th week, control 31%, p<0.01
From the text: [Method] […] Subsequently, each of only CE-2 powder, which is a normal diet, (control group, number of animals=8) and CE-2 powder supplemented with Compound A (number of animals=8) was given ad libitum during the period from the 9th week to the 12th week. Each animal was sacrificed by decapitation 12 weeks after initiation of the experiment, the vessel from the aortic arch to the femoral bifurcation was isolated and opened in the direction of the vascular axis, stained with oil red O (Sigma Aldrich Japan), photographed closely using a medical Nikkor (NIKON), and the photograph was scanned using a scanner (GT-6000, EPSON) and the image was processed using Adobe Photoshop. Thus, the image of the vessel was trimmed and the red color was extracted and modified into a two-tone gradation.
The two-tone image was subjected to an NIH image (National Institute of Health) to count pixels, whereby calculating the % lesion area based on the entire surface area of the internal wall of the vessel.

COc1cccc(OC)c1NC(=O)Cc1c(-c2ccccc2C)c2cc(Cl)ccc2oc1=O [Compound A, 2-[6-chloro-2-oxo-4-(2-methylphenyl)-2H-chromen-3-yl]-N-(2,6-dimethoxyphenyl)acetamide]
lesion (plaque) area based on the vascular internal surface area: 15%
